Experimental data reported in patent publication US20240270762A1, “PENICILLIN-BINDING PROTEIN INHIBITORS” (priority 2021, published 2024).
≈ marks a conversion by molar mass, not a printed value. Read-outs that look alike come from different tables or passages of the source.

Assays:
[1] = molecular target: T1, PBP3 from Pseudomonas aeruginosa (PAO1) (Pseudomonas aeruginosa, UniProt G3XD46); assay: Bocillin-FL fluorescence polarization competition binding, P. aeruginosa PBP3; details: Binding affinity to P. aeruginosa PBP3; fluorescence polarization competition binding assay using Bocillin-FL; read-out: P. aeruginosa PBP3 Potency
T1 construct: made in house
T1 sequence (G3XD46 whole entry): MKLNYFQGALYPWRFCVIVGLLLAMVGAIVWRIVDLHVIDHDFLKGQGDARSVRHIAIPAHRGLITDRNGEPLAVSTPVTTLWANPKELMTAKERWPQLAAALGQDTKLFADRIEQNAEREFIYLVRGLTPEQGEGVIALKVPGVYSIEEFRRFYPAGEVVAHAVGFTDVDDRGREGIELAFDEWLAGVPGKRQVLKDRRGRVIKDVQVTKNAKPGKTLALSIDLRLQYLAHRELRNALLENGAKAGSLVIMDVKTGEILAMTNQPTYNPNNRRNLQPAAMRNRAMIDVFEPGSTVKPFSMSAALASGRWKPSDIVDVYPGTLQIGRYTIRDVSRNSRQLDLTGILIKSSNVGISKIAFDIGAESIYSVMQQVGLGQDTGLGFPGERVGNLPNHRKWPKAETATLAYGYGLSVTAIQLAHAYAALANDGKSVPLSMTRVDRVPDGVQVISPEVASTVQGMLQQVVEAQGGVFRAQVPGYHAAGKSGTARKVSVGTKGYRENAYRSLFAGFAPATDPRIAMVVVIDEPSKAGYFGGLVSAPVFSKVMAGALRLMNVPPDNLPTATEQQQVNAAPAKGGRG
Procedure, shortened: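 Purified PBPs pre-incubated with inhibitor (E. coli PBP3 1.5 μM, 30 min; P. aeruginosa PBP3 0.75 μM, A. baumannii PBP1a 1 μM and PBP3 0.2 μM, 15 min), then Bocillin-FL 0.1 μM (0.05 μM for PBP1a) added; FP read up to 60 min. EC50 = concentration halving bound Bocillin-FL.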

A. baumannii ATCC 19606 = assay: microbe, parasite or virus in culture; type: cell-based; details: Acinetobacter baumannii, ATCC19606, read-out: Minimum inhibitory concentration (MIC), A. baumannii ATCC 19606
[2] = test system: B. thailandensis ATCC 700388; assay: microbe, parasite or virus in culture; type: cell-based; details: Burkholderia thailandensis, ATCC700388, read-out: Minimum inhibitory concentration (MIC), B. thailandensis ATCC 700388
A. baumannii CDC-0033 = assay: microbe, parasite or virus in culture; type: cell-based; details: Acinetobacter baumannii, CDC0033, read-out: Minimum inhibitory concentration (MIC), A. baumannii CDC-0033
A. baumannii 1258916 = assay: microbe, parasite or virus in culture; type: cell-based, Acinetobacter baumannii; details: Acinetobacter baumannii, 1258916, read-out: Minimum inhibitory concentration (MIC), A. baumannii 1258916
[3] = test system: B. humptydooensis ATCC BAA-2767; assay: microbe, parasite or virus in culture; type: cell-based; details: Burkholderia humptydooensis, ATCCBAA2767, read-out: Minimum inhibitory concentration (MIC), B. humptydooensis ATCC BAA-2767
A. baumannii CDC-0045 = assay: microbe, parasite or virus in culture; type: cell-based; details: Acinetobacter baumannii, CDC0045, read-out: Minimum inhibitory concentration (MIC), A. baumannii CDC-0045
A. baumannii ATCC 17978 = assay: microbe, parasite or virus in culture; type: cell-based; details: Acinetobacter baumannii, ATCC17978, read-out: Minimum inhibitory concentration (MIC), A. baumannii ATCC 17978
A. baumannii CDC-0036 = assay: microbe, parasite or virus in culture; type: cell-based; details: Acinetobacter baumannii, CDC0036, read-out: Minimum inhibitory concentration (MIC), A. baumannii CDC-0036
A. baumannii PBP2 = A. baumannii PBP2 (Acinetobacter baumannii, UniProt D0C8Z9); assay: Bocillin-FL competition binding via gel filtration, A. baumannii PBP2
Sequence of A. baumannii PBP2 (D0C8Z9 whole entry): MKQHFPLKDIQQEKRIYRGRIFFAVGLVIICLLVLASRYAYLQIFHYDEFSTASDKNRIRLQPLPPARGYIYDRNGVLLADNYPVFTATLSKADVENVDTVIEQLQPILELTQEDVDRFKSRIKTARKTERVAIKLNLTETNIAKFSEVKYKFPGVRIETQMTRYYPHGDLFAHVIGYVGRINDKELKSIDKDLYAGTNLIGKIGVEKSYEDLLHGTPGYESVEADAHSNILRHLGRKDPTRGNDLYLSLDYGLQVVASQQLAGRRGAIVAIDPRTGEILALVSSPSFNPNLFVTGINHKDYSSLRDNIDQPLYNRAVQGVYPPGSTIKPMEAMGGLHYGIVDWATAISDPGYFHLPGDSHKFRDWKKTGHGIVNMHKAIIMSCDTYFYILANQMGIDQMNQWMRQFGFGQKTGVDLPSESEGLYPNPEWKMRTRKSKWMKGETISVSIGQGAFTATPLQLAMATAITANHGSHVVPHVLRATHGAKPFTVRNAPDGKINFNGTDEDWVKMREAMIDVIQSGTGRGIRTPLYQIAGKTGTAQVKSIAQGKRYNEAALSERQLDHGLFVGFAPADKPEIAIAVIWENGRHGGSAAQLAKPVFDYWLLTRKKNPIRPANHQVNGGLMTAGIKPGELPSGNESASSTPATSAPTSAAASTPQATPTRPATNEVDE
Method: (§1) Affinity to A. baumannii PBP1a and PBP2 was assessed a competitive equilibrium binding assay using Bocillin-FL as the reporter molecule. Enzyme was pre-incubated with increasing concentrations of inhibitors, prior to addition of Bocillin and further incubation for 15 minutes. PBP bound with Bocillin-FL was separated by gel filtration using 96-well Zeba Spin size exclusion plates, and the fluorescence measured. The inhibitor affinity (reported as the EC50) was determined by plotting the fraction of PBP bound with Bocillin-FL at each inhibitor concentration against the inhibitor concentration, and fitting the data to the following equation:
(§2) [formula] • where y is the fraction bound at a given inhibitor concentration, ymin is the fraction bound when the enzyme is completely inactivated, ymax is the maximum (uninhibited) fraction bound, n is the Hill coefficient, and x is the inhibitor concentration.

A. baumannii PBP1a = molecular target: T2, A. baumannii PBP1a (Acinetobacter baumannii, UniProt A0ABX6CK30); assay: Bocillin-FL competition binding via gel filtration, A. baumannii PBP1a
T2 sequence (A0ABX6CK30 1-851): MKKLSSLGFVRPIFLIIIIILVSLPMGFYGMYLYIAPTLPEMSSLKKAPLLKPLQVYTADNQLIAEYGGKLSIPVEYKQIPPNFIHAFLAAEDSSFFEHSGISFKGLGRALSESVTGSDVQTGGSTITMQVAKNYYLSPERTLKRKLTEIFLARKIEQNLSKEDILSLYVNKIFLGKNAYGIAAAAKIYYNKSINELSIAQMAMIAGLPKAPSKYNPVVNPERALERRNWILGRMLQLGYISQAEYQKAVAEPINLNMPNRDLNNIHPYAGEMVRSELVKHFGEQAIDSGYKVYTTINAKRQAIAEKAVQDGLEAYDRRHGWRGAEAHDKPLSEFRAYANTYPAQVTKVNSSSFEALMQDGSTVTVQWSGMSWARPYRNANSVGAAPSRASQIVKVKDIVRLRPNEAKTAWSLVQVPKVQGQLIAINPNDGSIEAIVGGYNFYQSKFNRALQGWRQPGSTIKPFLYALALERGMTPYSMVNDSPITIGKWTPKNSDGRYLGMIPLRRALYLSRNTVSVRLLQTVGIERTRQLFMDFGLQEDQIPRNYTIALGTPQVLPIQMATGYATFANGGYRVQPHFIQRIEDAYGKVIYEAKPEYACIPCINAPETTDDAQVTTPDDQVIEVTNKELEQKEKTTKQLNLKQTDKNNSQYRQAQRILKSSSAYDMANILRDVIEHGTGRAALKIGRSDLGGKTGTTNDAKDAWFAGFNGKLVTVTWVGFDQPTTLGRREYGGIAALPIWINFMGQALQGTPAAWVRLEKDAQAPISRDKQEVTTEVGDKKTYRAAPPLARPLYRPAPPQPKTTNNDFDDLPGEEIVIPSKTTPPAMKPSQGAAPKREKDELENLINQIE
Method: as §1, §2

B. pseudomallei Bp82 = assay: microbe, parasite or virus in culture; type: cell-based; details: Burkholderia pseudomallei, BP82, read-out: Minimum inhibitory concentration, B. pseudomallei Bp82
P. aeruginosa CDC-0095 = assay: microbe, parasite or virus in culture; type: cell-based; details: Pseudomonas aeruginosa, CDC0095, read-out: Minimum inhibitory concentration, P. aeruginosa CDC-0095
P. aeruginosa ATCC 27853 = assay: microbe, parasite or virus in culture; type: cell-based; details: Pseudomonas aeruginosa, ATCC27853, read-out: Minimum inhibitory concentration, P. aeruginosa ATCC 27853
P. aeruginosa CDC-0090 = assay: microbe, parasite or virus in culture; type: cell-based; details: Pseudomonas aeruginosa, CDC0090, read-out: Minimum inhibitory concentration, P. aeruginosa CDC-0090
P. aeruginosa CDC-0054 = assay: microbe, parasite or virus in culture; type: cell-based; details: Pseudomonas aeruginosa, CDC0054, read-out: Minimum inhibitory concentration, P. aeruginosa CDC-0054
P. aeruginosa CDC-0110 = assay: microbe, parasite or virus in culture; type: cell-based; details: Pseudomonas aeruginosa, CDC0110, read-out: Minimum inhibitory concentration, P. aeruginosa CDC-0110
P. aeruginosa ATCC 35151 = assay: microbe, parasite or virus in culture; type: cell-based; details: Pseudomonas aeruginosa, ATCC35151, read-out: Minimum inhibitory concentration, P. aeruginosa ATCC 35151
[4] = test system: P. aeruginosa (ΔmexAB-oprM); assay: Broth microdilution MIC in iron-depleted CAMHB (IDM); type: cell-based; details: Pseudomonas aeruginosa, read-out: Minimum inhibitory concentration, P. aeruginosa ΔmexAB-oprM
[5] = competition binding assay using Bocillin-FL via gel filtration, read-out: A. baumannii PBP1a Potency

SMILES | MIC [2] [µg/mL] | MIC [3] [µg/mL] | EC50 (A. baumannii PBP2) [µM] | EC50 (A. baumannii PBP1a; [5]) [µM] | MIC (P. aeruginosa CDC-0095) [µg/mL] | MIC (P. aeruginosa ATCC 27853) [µg/mL] | MIC (P. aeruginosa CDC-0090) [µg/mL] | MIC (P. aeruginosa CDC-0054) [µg/mL] | MIC (P. aeruginosa CDC-0110) [µg/mL] | MIC (P. aeruginosa ATCC 35151) [µg/mL] | MIC [4] [µg/mL] | further results
O=C(O)c1c(F)ccc2c1OB(O)[C@@H](NC(=O)[C@H](NC(=O)N1CCN(C3CCN(C(=O)Nc4cc(O)c(O)c(Cl)c4)CC3)C1=O)c1ccc(P(=O)(O)O)cc1)C2 (single isomer, unassigned) [Example 501] | < 1 | < 1 | < 10 | < 10 |  |  |  |  |  |  |  | IC50 [1]: < 10 µM; MIC (A. baumannii ATCC 19606): < 1 µg/mL; MIC (A. baumannii CDC-0033): 2 to 4 µg/mL (≈ 2.44 to 4.88 µM); MIC (A. baumannii 1258916): 2 to 4 µg/mL (≈ 2.44 to 4.88 µM); MIC (A. baumannii CDC-0045): < 1 µg/mL; MIC (A. baumannii ATCC 17978): < 1 µg/mL; MIC (A. baumannii CDC-0036): 2 to 4 µg/mL (≈ 2.44 to 4.88 µM); MIC (B. pseudomallei Bp82): 2 to 4 µg/mL (≈ 2.44 to 4.88 µM)
NCc1ccc(C(=O)N2CCC(N3CCN(C(=O)NC(C(=O)N[C@H]4Cc5ccc(F)c(C(=O)O)c5OB4O)c4cc(F)c(O)c(O)c4Cl)C3=O)CC2)cc1 (single isomer, unassigned) [Example 604] | < 1 | < 1 | 10 to 50 | 10 to 50 | 2 to 4 (≈ 2.59 to 5.19 µM) | < 1 | < 1 | < 1 | < 1 | < 1 | < 1 | 
NCc1cc(O)cc(C(=O)N2CCC(N3CCN(C(=O)N[C@@H](C(=O)N[C@H]4Cc5ccc(F)c(C(=O)O)c5OB4O)c4cc(F)c(O)c(O)c4Cl)C3=O)CC2)c1 (single isomer, unassigned) [Example 615] | < 1 | < 1 | 10 to 50 | 10 to 50 | < 1 | < 1 | < 1 | < 1 | < 1 | < 1 | < 1 | 
NCc1ccc(C(=O)N2CCC(N3CCN(C(=O)NC(C(=O)N[C@H]4Cc5ccc(F)c(C(=O)O)c5OB4O)c4cc(F)c(O)c(O)c4Cl)C3=O)CC2)cc1O (single isomer, unassigned) [Example 616] | 2 to 4 (≈ 2.54 to 5.08 µM) | < 1 | 10 to 50 | 10 to 50 | < 1 | < 1 | < 1 | < 1 | < 1 | < 1 | < 1 | 
O=C(O)c1c(F)ccc2c1OB(O)[C@@H](NC(=O)[C@@H](NC(=O)N1CCN(C3CCN(S(=O)(=O)c4ccc5[nH]nnc5c4)CC3)C1=O)c1cc(F)c(O)c(O)c1Cl)C2 (single isomer, unassigned) [Example 620] | > 128 | > 128 | < 10 | < 10 | > 128 | 2 to 4 (≈ 2.44 to 4.88 µM) | 2 to 4 (≈ 2.44 to 4.88 µM) | 2 to 4 (≈ 2.44 to 4.88 µM) | > 128 | < 1 | < 1 | 
O=C(O)c1c(F)ccc2c1OB(O)[C@@H](NC(=O)[C@H](NC(=O)N1CCN(C3CCN(S(=O)(=O)c4ccc5[nH]nnc5c4)CC3)C1=O)c1cc(F)c(O)c(O)c1Cl)C2 (single isomer, unassigned) [Example 621] | 2 to 4 (≈ 2.44 to 4.88 µM) | < 1 | < 10 | < 10 | < 1 | < 1 | < 1 | < 1 | < 1 | < 1 | < 1 | 
O=C(O)c1c(F)ccc2c1OB(O)[C@@H](NC(=O)C(NC(=O)N1CCN(C3CCN(Cc4cccc(O)c4)CC3)C1=O)c1cc(F)c(O)c(O)c1Cl)C2 (stereo partly drawn) [Example 605, (3R)-3-(2-(2-chloro-5-fluoro-3,4-dihydroxyphenyl)-2-(3-(1-(3-hydroxybenzyl)piperidin-4-yl)-2-oxoimidazolidine-1-carboxamido)acetamido)-7-fluoro-2-hydroxy-3,4-dihydro-2H-benzo[e][1,2]oxaborinine-8-carboxylic acid] | < 1 | < 1 | 10 to 50 |  |  |  |  |  |  |  |  | EC50 (A. baumannii PBP1a): < 10 µM; MIC (B. pseudomallei Bp82): < 1 µg/mL
O=C(O)c1c(F)ccc2c1OB(O)[C@@H](NC(=O)[C@H](NC(=O)N1CCN(C3CCN(S(=O)(=O)c4ccc5[nH]nnc5c4)CC3)C1=O)c1cc(F)c(O)c(O)c1F)C2 [Example 622, (R)-3-((R)-2-(3-(1-((1H-benzo[d][1,2,3]triazol-5-yl)sulfonyl)piperidin-4-yl)-2-oxoimidazolidine-1-carboxamido)-2-(2,5-difluoro-3,4-dihydroxyphenyl)acetamido)-7-fluoro-2-hydroxy-3,4-dihydro-2H-benzo[e][1,2]oxaborinine-8-carboxylic acid] | 2 to 4 (≈ 2.49 to 4.98 µM) |  |  |  | 2 to 4 (≈ 2.49 to 4.98 µM) | 2 to 4 (≈ 2.49 to 4.98 µM) | < 1 | < 1 | < 1 | < 1 |  | MIC ([4]; iron-depleted CAMHB (IDM), […]): < 1 µg/mL
O=C(O)c1c(F)ccc2c1OB(O)[C@@H](NC(=O)[C@H](NC(=O)N1CCN(C3CCN(C(=O)c4cc(O)cc(O)c4)CC3)C1=O)c1cc(F)c(O)c(O)c1F)C2 [Example 623, (R)-3-((R)-2-(2,5-difluoro-3,4-dihydroxyphenyl)-2-(3-(1-(3,5-dihydroxybenzoyl)piperidin-4-yl)-2-oxoimidazolidine-1-carboxamido)acetamido)-7-fluoro-2-hydroxy-3,4-dihydro-2H-benzo[e][1,2]oxaborinine-8-carboxylic acid] | < 1 |  |  |  | < 1 | < 1 | < 1 | < 1 | < 1 | < 1 |  | MIC ([4]; iron-depleted CAMHB (IDM), […]): < 1 µg/mL
